Test results taken from PubChem BioAssay (NCI).
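Step 1: Grow cells in 96-well plates. Step 2: Expose to compound for 48 hours at 5 concentrations. Step 3: Interpolate endpoints linearly; if unreached, use highest concentration. TGI: total growth inhibition.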

Tests used:
Experiment in all cases: NCI anticancer screen, dose series, 48 h
786-0 renal = system: 786-0 renal
A498 renal = system: A498 renal
A549 NSCLC = system: A549 NSCLC
ACHN renal = system: ACHN renal
BT-549 breast = system: BT-549 breast
CCRF-CEM leukemia = system: CCRF-CEM leukemia
COLO 205 colon = system: COLO 205 colon
DU-145 prostate = system: DU-145 prostate
EKVX NSCLC = system: EKVX NSCLC
HCC-2998 colon = system: HCC-2998 colon
HCT-116 colon = system: HCT-116 colon
HCT-15 colon = system: HCT-15 colon
HL-60(TB) leukemia = system: HL-60(TB) leukemia
HOP-62 NSCLC = system: HOP-62 NSCLC
HOP-92 NSCLC = system: HOP-92 NSCLC
HS 578T breast = system: HS 578T breast
HT29 colon = system: HT29 colon
IGROV1 ovarian = system: IGROV1 ovarian
K-562 leukemia = system: K-562 leukemia
KM12 colon = system: KM12 colon
LOX IMVI melanoma = system: LOX IMVI melanoma
M14 melanoma = system: M14 melanoma
MALME-3M melanoma = system: MALME-3M melanoma
MCF7 breast = system: MCF7 breast
MDA-MB-231 breast = system: MDA-MB-231 breast
MDA-MB-435 = system: MDA-MB-435
MDA-N = system: MDA-N
MOLT-4 leukemia = system: MOLT-4 leukemia
NCI-H226 lung = system: NCI-H226 lung
NCI-H23 lung = system: NCI-H23 lung
NCI-H460 lung = system: NCI-H460 lung
NCI-H522 lung = system: NCI-H522 lung
NCI/ADR-RES ovarian = system: NCI/ADR-RES ovarian
OVCAR-3 ovarian = system: OVCAR-3 ovarian
OVCAR-4 ovarian = system: OVCAR-4 ovarian
OVCAR-5 ovarian = system: OVCAR-5 ovarian
OVCAR-8 ovarian = system: OVCAR-8 ovarian
PC-3 prostate = system: PC-3 prostate
RPMI-8226 leukemia = system: RPMI-8226 leukemia
RXF 393 renal = system: RXF 393 renal
SF-268 CNS = system: SF-268 CNS
SF-295 CNS = system: SF-295 CNS
SF-539 CNS = system: SF-539 CNS
SK-MEL-2 melanoma = system: SK-MEL-2 melanoma
SK-MEL-28 melanoma = system: SK-MEL-28 melanoma
SK-MEL-5 melanoma = system: SK-MEL-5 melanoma
SK-OV-3 ovarian = system: SK-OV-3 ovarian
SN12C renal = system: SN12C renal
SNB-19 CNS = system: SNB-19 CNS
SNB-75 CNS = system: SNB-75 CNS
SR leukemia = system: SR leukemia
SW-620 colon = system: SW-620 colon
T-47D breast = system: T-47D breast
TK-10 renal = system: TK-10 renal
U251 CNS = system: U251 CNS
UACC-257 melanoma = system: UACC-257 melanoma
UACC-62 melanoma = system: UACC-62 melanoma
UO-31 renal = system: UO-31 renal
CAKI-1 renal = system: CAKI-1 renal

O=C1CC(c2ccccc2Cl)C2(C(=O)NC(=S)NC2=O)C(c2ccccc2Cl)C1 (stereo not given)
TGI (786-0 renal): 51 µM | TGI (A498 renal): 40.4 µM | TGI (A549 NSCLC): 65.5 µM | TGI (ACHN renal): 55.7 µM | TGI (BT-549 breast): 98.2 µM | TGI (CCRF-CEM leukemia): > 100 µM | TGI (COLO 205 colon): > 100 µM | TGI (DU-145 prostate): > 100 µM | TGI (EKVX NSCLC): > 100 µM | TGI (HCC-2998 colon): 52.1 µM | TGI (HCT-116 colon): 41 µM | TGI (HCT-15 colon): 53.6 µM | TGI (HL-60(TB) leukemia): > 100 µM | TGI (HOP-62 NSCLC): > 100 µM | TGI (HOP-92 NSCLC): 32.1 µM | TGI (HS 578T breast): 22.8 µM | TGI (HT29 colon): > 100 µM | TGI (IGROV1 ovarian): 77 µM | TGI (K-562 leukemia): > 100 µM | TGI (KM12 colon): 27.1 µM | TGI (LOX IMVI melanoma): 36.4 µM | TGI (M14 melanoma): 38.9 µM | TGI (MALME-3M melanoma): 31 µM | TGI (MCF7 breast): 40.2 µM | TGI (MDA-MB-231 breast): 72.8 µM | TGI (MDA-MB-435): 34.4 µM | TGI (MDA-N): > 100 µM | TGI (MOLT-4 leukemia): > 100 µM | TGI (NCI-H226 lung): 71.4 µM | TGI (NCI-H23 lung): 37.7 µM | TGI (NCI-H460 lung): 42.9 µM | TGI (NCI-H522 lung): 99.3 µM | TGI (NCI/ADR-RES ovarian): > 100 µM | TGI (OVCAR-3 ovarian): 60 µM | TGI (OVCAR-4 ovarian): > 100 µM | TGI (OVCAR-5 ovarian): > 100 µM | TGI (OVCAR-8 ovarian): 49.6 µM | TGI (PC-3 prostate): 81.8 µM | TGI (RPMI-8226 leukemia): > 100 µM | TGI (RXF 393 renal): 32.8 µM | TGI (SF-268 CNS): 38.3 µM | TGI (SF-295 CNS): 66.6 µM | TGI (SF-539 CNS): > 100 µM | TGI (SK-MEL-2 melanoma): 62 µM | TGI (SK-MEL-28 melanoma): > 100 µM | TGI (SK-MEL-5 melanoma): 58.6 µM | TGI (SK-OV-3 ovarian): > 100 µM | TGI (SN12C renal): 65.8 µM | TGI (SNB-19 CNS): 30.9 µM | TGI (SNB-75 CNS): > 100 µM | TGI (SR leukemia): > 100 µM | TGI (SW-620 colon): > 100 µM | TGI (T-47D breast): 93.5 µM | TGI (TK-10 renal): 0.206 µM | TGI (U251 CNS): 32.8 µM | TGI (UACC-257 melanoma): 30.6 µM | TGI (UACC-62 melanoma): 40.8 µM | TGI (UO-31 renal): > 100 µM

Cc1cc(CN2CCCCC2)c(O)c(CN2CCCCC2)c1
TGI (786-0 renal): > 100 µM | TGI (A498 renal): > 100 µM | TGI (A549 NSCLC): > 100 µM | TGI (ACHN renal): > 100 µM | TGI (BT-549 breast): > 100 µM | TGI (CAKI-1 renal): > 100 µM | TGI (CCRF-CEM leukemia): > 100 µM | TGI (COLO 205 colon): > 100 µM | TGI (DU-145 prostate): > 100 µM | TGI (EKVX NSCLC): > 100 µM | TGI (HCC-2998 colon): > 100 µM | TGI (HCT-116 colon): > 100 µM | TGI (HCT-15 colon): > 100 µM | TGI (HL-60(TB) leukemia): > 100 µM | TGI (HOP-62 NSCLC): > 100 µM | TGI (HOP-92 NSCLC): > 100 µM | TGI (HS 578T breast): > 100 µM | TGI (HT29 colon): > 100 µM | TGI (IGROV1 ovarian): > 100 µM | TGI (K-562 leukemia): > 100 µM | TGI (KM12 colon): > 100 µM | TGI (LOX IMVI melanoma): > 100 µM | TGI (M14 melanoma): > 100 µM | TGI (MALME-3M melanoma): > 100 µM | TGI (MCF7 breast): > 100 µM | TGI (MDA-MB-231 breast): > 100 µM | TGI (MDA-MB-435): > 100 µM | TGI (MDA-N): > 100 µM | TGI (NCI-H226 lung): > 100 µM | TGI (NCI-H23 lung): > 100 µM | TGI (NCI-H460 lung): > 100 µM | TGI (NCI-H522 lung): > 100 µM | TGI (NCI/ADR-RES ovarian): > 100 µM | TGI (OVCAR-3 ovarian): > 100 µM | TGI (OVCAR-4 ovarian): > 100 µM | TGI (OVCAR-5 ovarian): > 100 µM | TGI (OVCAR-8 ovarian): > 100 µM | TGI (PC-3 prostate): > 100 µM | TGI (RPMI-8226 leukemia): > 100 µM | TGI (RXF 393 renal): > 100 µM | TGI (SF-268 CNS): > 100 µM | TGI (SF-295 CNS): > 100 µM | TGI (SK-MEL-2 melanoma): > 100 µM | TGI (SK-MEL-28 melanoma): > 100 µM | TGI (SK-MEL-5 melanoma): > 100 µM | TGI (SK-OV-3 ovarian): > 100 µM | TGI (SN12C renal): > 100 µM | TGI (SNB-19 CNS): > 100 µM | TGI (SNB-75 CNS): > 100 µM | TGI (SR leukemia): > 100 µM | TGI (SW-620 colon): > 100 µM | TGI (T-47D breast): > 100 µM | TGI (TK-10 renal): > 100 µM | TGI (U251 CNS): > 100 µM | TGI (UACC-257 melanoma): > 100 µM | TGI (UACC-62 melanoma): > 100 µM | TGI (UO-31 renal): > 100 µM

O=C(N/N=C\c1c(O)ccc2ccccc12)c1ccncc1
TGI (786-0 renal): > 25 µM | TGI (A498 renal): > 15.6 µM | TGI (A549 NSCLC): > 25 µM | TGI (ACHN renal): > 13.5 µM | TGI (BT-549 breast): > 8.19 µM | TGI (CAKI-1 renal): > 4.94 µM | TGI (COLO 205 colon): > 14.2 µM | TGI (DU-145 prostate): > 25 µM | TGI (EKVX NSCLC): > 25 µM | TGI (HCC-2998 colon): > 25 µM | TGI (HCT-116 colon): > 25 µM | TGI (HCT-15 colon): > 25 µM | TGI (HL-60(TB) leukemia): 5.91 µM | TGI (HOP-62 NSCLC): > 25 µM | TGI (HOP-92 NSCLC): 18.8 µM | TGI (HS 578T breast): > 25 µM | TGI (HT29 colon): > 25 µM | TGI (IGROV1 ovarian): 1.84 µM | TGI (KM12 colon): > 25 µM | TGI (LOX IMVI melanoma): > 25 µM | TGI (M14 melanoma): > 19.4 µM | TGI (MALME-3M melanoma): > 7.77 µM | TGI (MCF7 breast): > 7.75 µM | TGI (MDA-MB-231 breast): > 5.71 µM | TGI (MDA-MB-435): > 25 µM | TGI (MDA-N): > 25 µM | TGI (NCI-H226 lung): 2.67 µM | TGI (NCI-H23 lung): > 25 µM | TGI (NCI-H460 lung): > 6.82 µM | TGI (NCI-H522 lung): > 7.49 µM | TGI (NCI/ADR-RES ovarian): > 8.64 µM | TGI (OVCAR-3 ovarian): > 25 µM | TGI (OVCAR-4 ovarian): > 22.2 µM | TGI (OVCAR-5 ovarian): > 25 µM | TGI (OVCAR-8 ovarian): > 25 µM | TGI (PC-3 prostate): > 25 µM | TGI (RPMI-8226 leukemia): > 5.06 µM | TGI (RXF 393 renal): > 8.59 µM | TGI (SF-295 CNS): > 25 µM | TGI (SF-539 CNS): 8.2 µM | TGI (SK-MEL-2 melanoma): > 9.41 µM | TGI (SK-MEL-28 melanoma): > 25 µM | TGI (SK-MEL-5 melanoma): > 9.41 µM | TGI (SK-OV-3 ovarian): 24.3 µM | TGI (SN12C renal): > 5.5 µM | TGI (SNB-19 CNS): > 25 µM | TGI (SNB-75 CNS): > 25 µM | TGI (SR leukemia): > 25 µM | TGI (SW-620 colon): > 25 µM | TGI (T-47D breast): > 25 µM | TGI (TK-10 renal): > 25 µM | TGI (U251 CNS): > 25 µM | TGI (UACC-257 melanoma): > 25 µM | TGI (UACC-62 melanoma): 2.04 µM | TGI (UO-31 renal): 3.95 µM
